Assay results: paper PMC9782819, “Ramosin: The First Antibacterial Peptide Identified on Bolitoglossa ramosi Colombian Salamander” (Pharmaceutics, 2022)
Where no end group is shown, it is not given here.

How the values were obtained:
[1] = tested on: Bacillus cereus ATCC 6464; assay: Growth inhibition kinetics (bactericidal or bacteriostatic); type: cell-based; conditions: 19 h, peptide 70 μM
Method: (§1) To determine the minimum inhibitory concentrations (MICs) of the candidate peptides, the 96-well plate microdilution assay, described by the Clinical and Laboratory Standards Institute (CLSI) and the European Committee on Antimicrobial Susceptibility Testing (EUCAST), was performed. For testing the antimicrobial activity of the candidate peptides, Gram-positive and Gram-negative bacterial strains were used. The strains used were Staphylococcus aureus ATCC 29,213 (S. aureus), Enterococcus faecalis ATCC 29,212 (E. faecalis), Bacillus cereus ATCC 6464 (B. cereus), and Micrococcus luteus ATCC 9341 (M. luteus) as Gram-positive, and Escherichia coli ATCC 25,922 (E. coli), Pseudomonas aeruginosa ATCC 27,853 (P. aeruginosa), and Salmonella typhimurium ATCC 14,028 (S. typhimurium) as Gram-negative. The bacteria were cultivated in tryptic soy agar (TSA) until the time of carrying out the antimicrobial activity assay. For this assay, 3 to 5 colonies were taken from the agar and grown to exponential phase in tryptic soy broth (TSB) liquid medium defined as a 0.5 McFarland value measured with a densichek plus (Biomérieux). Bacteria were diluted to a final concentration of 5 × 10^5 CFU/mL. […] The plates were incubated for 18 h at 37 °C, and subsequently the absorbance was read in a MultiSkan GO (Thermofisher, Waltham, MA, USA) at 600 nm. […] To determine if the effect of the peptides was bactericidal or bacteriostatic, once the absorbance reading was completed, 10 μL were taken from each well where bacterial growth inhibition was observed and they were sown in TSA agars and incubated at 37 °C for 24 h. […]
(§2) All bacterial strains used were ATCC reference strains. The antibacterial activity of Ramosin was evaluated using the Wiegand et al. protocol. […] Two types of tests were carried out: the endpoint, in which the absorbance of the plates was read after 19 h of treatment, and kinetics, in which plate readings were made every hour to determine whether the effect of the peptides was bactericidal or bacteriostatic.
(§3) In addition to absorbance measurement, a bacterial growth test was performed. […]

[2] = tested on: Pseudomonas aeruginosa ATCC 27,853; assay: as above; type: cell-based; conditions: 19 h, peptide 70 μM
Method: as §1, §2, §3

[3] = tested on: Escherichia coli ATCC 25,922; assay: as above; type: cell-based; conditions: 19 h, peptide 70 μM
Method: as §1, §2, §3

[4] = tested on: Staphylococcus aureus ATCC 29,213; assay: Broth microdilution endpoint assay / MIC; type: cell-based; conditions: 19 h treatment, absorbance 600 nm, p > 0.005
Method: (§4) To determine the minimum inhibitory concentrations (MICs) of the candidate peptides, the 96-well plate microdilution assay, described by the Clinical and Laboratory Standards Institute (CLSI) and the European Committee on Antimicrobial Susceptibility Testing (EUCAST), was performed. For testing the antimicrobial activity of the candidate peptides, Gram-positive and Gram-negative bacterial strains were used. […] For this assay, 3 to 5 colonies were taken from the agar and grown to exponential phase in tryptic soy broth (TSB) liquid medium defined as a 0.5 McFarland value measured with a densichek plus (Biomérieux). […] The plates were incubated for 18 h at 37 °C, and subsequently the absorbance was read in a MultiSkan GO (Thermofisher, Waltham, MA, USA) at 600 nm. […] To determine if the effect of the peptides was bactericidal or bacteriostatic, once the absorbance reading was completed, 10 μL were taken from each well where bacterial growth inhibition was observed and they were sown in TSA agars and incubated at 37 °C for 24 h. […]
(§5) All bacterial strains used were ATCC reference strains. The antibacterial activity of Ramosin was evaluated using the Wiegand et al. protocol. […]
as §3

[5] = tested on: Staphylococcus aureus ATCC 29,213; assay: Growth inhibition kinetics (bactericidal or bacteriostatic); type: cell-based; conditions: 19 h, peptide 70 μM
Method: as §4, §5, §3

[6] = tested on: Escherichia coli ATCC 25,922; type: cell-based; conditions: ATCC 25, 18 h
Method: as §4, §5, §3

Method for human red blood cells: The hemolytic activity of the peptide was determined as previously reported [45]. In brief, its hemolytic activity of the peptide was evaluated by determining the amount of the released hemoglobin from a 4% v/v suspension of fresh human red blood cells (RBCs). In 96-well plates, 65 μL of the RBCs suspension and 65 μL of each peptide dilution were mixed. […] Plates were incubated at 37 °C for two hours, then centrifuged at 2500× g for 5 min. A total of 80 μL of supernatant was recovered and transferred to another 96-well plate, and absorbance at 540 nm was measured in a MultiSkan GO (Thermofisher, Waltham, MA, USA). The percentage of hemolysis was calculated according to the following formula [45]: (1) %Hemolysis=OD450 in the peptide suspension−OD450 negative control in PBS/OD450 of positive control−OD450 negative control in PBS×100

Substance | effect on B. cereus at 70 μM [1] | effect on P. aeruginosa at 70 μM [2] | effect on E. coli at 70 μM [3] | effect on viability of S. aureus, endpoint assay (peptide control) [4] | effect on S. aureus at 70 μM [5] | non-hemolytic concentration relative to MIC (human red blood cells) | MIC for E. coli [6] [µM]
Buforin II | failed to inhibit the growth | bactericidal effect | bactericidal effect | did not have a statistically significant effect | failed to inhibit the growth |  | 
GWFSLVRKVVGGVGSL-NH2 [Ramosin] |  |  |  |  |  | up to four times its MIC | 17.5
